In assay [1] the target is T1, human Aurora B (Homo sapiens, UniProt Q96GD4).
T1 construct: the Hs.Aurora B kinase domain (aa.70–344) was co-expressed in E. coli cells; made in house; host or cells: E. coli BL21 (DE3) pLysS
Nature of the assay: Luciferase-coupled ATP assay (ATPase activity), human Aurora B. The format is biochemical. The procedure:
(§1) The pGEX-dual expression plasmid containing human (Hs.) Aurora B kinase domain (aa.54–344) and a C-terminal fragment of Hs.INCENP (aa.835–904) was obtained from Prof. Hongtao Yu (Department of Life Science, Westlake University). The cDNAs of Af.Aurora B kinase domain (aa.1–396, GenBank accession no. EDP54304.1) and the C-terminal fragment of Af.INCENP (aa.1200–1297, GenBank accession no. XP_033417438.1) was synthesised in Union Biotech (China). Protein expression and purification were performed as previously described. Briefly, The recombinant proteins of Aurora B and INCENP were coexpressed in BL21 (DE3) pLysS competent cells. For protein purification, cells co-expressing GST-INCENP and Aurora B proteins were resuspended with lysis buffer containing 50 mM Tris-HCl, pH 8.0, 200 mM NaCl, 5% glycerol, and 0.05% Triton X-100. Cells were disrupted by French Pressure (Union Biotech, China) and the supernatants were collected after centrifugation. The Aurora B/Hs.INCENP complex proteins were pooled through Glutathione columns (Smart-Lifesciences, China). […]
(§2) A luciferase-based luminescence assay was utilised to determine the ATPase activity of Aurora B according to the manufacture’s protocols (Promega). […] At the end of the reaction, the Kinase-Glo reagent (Promega) was added and the ATPase activity was evaluated by luminescence measurement on the microplate reader (SpectraMax-L, Molecular Devices).

For assay [2], the target named is T2, Af.Aurora B (Aspergillus fumigatus, UniProt B0XW52). Nature of the assay: Luciferase-coupled ATP assay (ATPase activity), Af.Aurora B. Conditions: IC50, inhibition of ATPase activity of Af.Aurora B, recombinant Af.Aurora B, n = 3. Type of assay: biochemical. As to the method:
as §1, §2

A further assay deals with T3, human Haspin (Homo sapiens, UniProt Q8TF76).
T3 sequence (Q8TF76 1-798): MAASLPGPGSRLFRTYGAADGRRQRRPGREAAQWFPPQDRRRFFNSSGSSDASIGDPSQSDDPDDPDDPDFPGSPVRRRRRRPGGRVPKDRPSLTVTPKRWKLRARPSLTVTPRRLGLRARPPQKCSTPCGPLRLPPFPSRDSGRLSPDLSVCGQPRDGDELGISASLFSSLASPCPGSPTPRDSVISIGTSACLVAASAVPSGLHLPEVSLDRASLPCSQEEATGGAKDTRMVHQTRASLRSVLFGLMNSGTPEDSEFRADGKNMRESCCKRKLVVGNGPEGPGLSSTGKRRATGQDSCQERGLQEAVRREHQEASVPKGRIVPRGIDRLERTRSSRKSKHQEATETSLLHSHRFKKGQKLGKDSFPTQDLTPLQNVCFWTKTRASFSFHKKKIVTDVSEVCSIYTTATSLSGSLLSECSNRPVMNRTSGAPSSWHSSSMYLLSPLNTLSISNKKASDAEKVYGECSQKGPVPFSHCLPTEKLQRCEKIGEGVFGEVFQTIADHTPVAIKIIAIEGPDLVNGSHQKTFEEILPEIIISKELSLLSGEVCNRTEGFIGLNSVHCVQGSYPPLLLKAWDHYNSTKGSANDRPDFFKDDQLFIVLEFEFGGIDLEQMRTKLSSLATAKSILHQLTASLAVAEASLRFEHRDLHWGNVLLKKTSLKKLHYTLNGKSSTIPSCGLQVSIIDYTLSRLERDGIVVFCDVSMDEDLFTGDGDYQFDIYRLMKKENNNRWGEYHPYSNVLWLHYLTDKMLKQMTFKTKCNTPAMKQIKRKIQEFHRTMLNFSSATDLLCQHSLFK
Nature of the assay: Luciferase-coupled ATP assay (ATPase activity), human Haspin. Particulars: read-out: IC50, inhibition of human Haspin ATPase activity. Type of assay: biochemical. The procedure:
(§3) A luciferase-based luminescence assay was utilised to determine the ATPase activity of Aurora B according to the manufacture’s protocols (Promega). Briefly, the Aurora B protein was incubated with 10 µM ATP in the absence or presence of various drugs at 30 °C, in a kinase buffer containing 50 mM Tris-HCl, pH7.4, 100 mM NaCl, 10 mM MgCl2, 1 mM DTT, and 0.1% Tween20. At the end of the reaction, the Kinase-Glo reagent (Promega) was added and the ATPase activity was evaluated by luminescence measurement on the microplate reader (SpectraMax-L, Molecular Devices).
Fig. S2 Effect of GSK650394 on human Haspin. (a) Comparison of ATPase activity between Aurora B and Haspin. The luminescence of ATP only control was normalized to 1.0. The values were normalized to ATP-only control set as 100% inhibition. Values are means ± S.E., n = 3. (b) Inhibition of human Haspin ATPase […]
(1 picture or pasted object on this page, not shown here)

Another assay addresses T4, V91A Aurora B (Homo sapiens, UniProt Q96GD4, V91A).
T4 construct: the Hs.Aurora B kinase domain (aa.70–344) was co-expressed in E. coli cells; made in house; host or cells: E. coli BL21 (DE3) pLysS
Nature of the assay: Luciferase-coupled ATP assay, V91A mutant Aurora B. The format is biochemical. As to the method: as §3

The subject of the next assay is HepG2. Nature of the assay: MTT cell proliferation assay, HepG2. The format is cell-based. Particulars: Homo sapiens, read-out: IC50, inhibition of proliferation. The procedure: (§4) MTT assay was conducted for cell proliferation analysis. Cells were cultured in 96-well plates (6 × 10^3/well) and treated with drugs or left untreated for 24–72 h. After treatment, cells were incubated with MTT solution (0.5 mg/mL) for 4 h at 37 °C. Then, the reactions were terminated by DMSO and the optical densities were measured by absorbance at 570 nm.

The next assay deals with LO2. Put plainly: MTT cell proliferation assay, LO2. Particulars: Homo sapiens, L02, read-out: IC50, inhibition of proliferation. The format is cell-based. As to the method: as §4
Another assay deals with MCF-7. Put plainly: MTT cell proliferation assay, MCF-7. The format is cell-based. Particulars: Homo sapiens, MCF7; MCF-7, MTT; read-out: IC50, inhibition of proliferation. The procedure:
as §4

The subject of the next assay is HELF. Nature of the assay: MTT cell proliferation assay, HELF. The format is cell-based. Particulars: read-out: IC50, inhibition of proliferation. As to the method: as §4
Another assay deals with Hela. Put plainly: MTT cell proliferation assay, Hela. Conditions: Homo sapiens, read-out: IC50, inhibition of proliferation. Type of assay: cell-based. The procedure:
as §4

The test system of assay [3] is endogenous Aurora B in HepG2 cells. Put plainly: Histone H3 Ser10 phosphorylation in HepG2 cells (immunoblot). Particulars: HepG2, 9 h after release from thymidine arrest. The format is cell-based, human. The procedure:
(§5) HepG2 and HeLa cells were cultured in DMEM and RPMI-1640, respectively, supplemented with 10% foetal bovine serum in 37 °C and 5% CO2. G1/S synchronisation was carried out by treating cells with 2 mM of thymidine for 19 h. […] Subsequently, cells were harvested and subjected to immunoblotting or flow cytometric analysis. For flow cytometry assay, cells were trypsinized, washed once with PBS, and then fixed with cold 75% ethanol. Fixed cells were washed with PBS and resuspended in PBS containing the propidium iodide (Sigma) DNA staining solution, for 30 min at 37 °C. Then, samples were analysed using the Cytoflex cytometer (Beckman Coulter, USA) and the data were processed with the Flow Jo software.

In assay [4] the test system is endogenous Aurora B in HeLa cells. Put plainly: Histone H3 Ser10 phosphorylation in HeLa cells (immunoblot). Type of assay: cell-based, human. Conditions: 9 h after release from thymidine arrest, vs control cells. The procedure:
as §5

The subject of another assay is Aspergillus fumigatus. Nature of the assay: Anti-Aspergillus fumigatus plate assay. The format is cell-based. Particulars: 37 °C, 30 h. The procedure: A plate assay was carried out to assess the growth rate of Aspergillus fumigatus. A specified amount of Aspergillus fumigatus spores were inoculated on the centre of the plate containing solid glucose minimal medium in the absence or presence of drugs. After further incubation for 30 h at 37 °C, the growth rate was determined by measuring the diameter of Aspergillus fumigatus clonies on each plate.

Assay [5] addresses T1, human Aurora B. Put plainly: In vitro kinase assay (histone H3 Ser10 phosphorylation), human Aurora B. Type of assay: biochemical. Particulars: Western blot. The procedure: (§6) The in vitro kinase assay was performed as previously described. The kinase activity of recombinant Aurora B was assayed by incubating 200 nM purified Aurora B/INCENP protein with 100 µM ATP and 6 µg bulk histones (from calf thymus, Sigma-Aldrich) in kinase buffer containing 50 mM Tris-HCl, pH7.4, 100 mM NaCl, 10 mM MgCl2, 1 mM DTT and 0.1% Tween20. After 15-min incubation at 30 °C, the reaction was quenched by SDS-sample buffer, separated on SDS-PAGE, and immunoblotted with anti-histone H3 and anti-histone H3 phospho-Ser10 (pS10) antibodies. The blots were scanned and quantified with the ChemiDoc™ Touch imaging system (Bio-rad). To investigate the compounds’ inhibitory effect, Aurora B was pre-incubated with DMSO or various concentrations of drugs for 15 min at room temperature and the reactions were then initialised by the addition of ATP and histone substrates.

Assay [6] concerns the target T2, Af.Aurora B. Nature of the assay: In vitro kinase assay (histone H3 phosphorylation), Af.Aurora B. Type of assay: biochemical. Conditions: Western blot. As to the method:
as §6

The subject of assay [7] is acute myelogenous leukaemia (AML). Set-up: method as in PMID 23763917. Conditions: patients with AML, combined with low-dose cytosine arabinoside (LDAC); cited from earlier work.

Structures are written as SMILES. Values joined by “and” are separate entries in the source; they are usually repeats but may differ in a detail not shown here. Equal values may be shown once.

T1 sequence (Q96GD4 70-344): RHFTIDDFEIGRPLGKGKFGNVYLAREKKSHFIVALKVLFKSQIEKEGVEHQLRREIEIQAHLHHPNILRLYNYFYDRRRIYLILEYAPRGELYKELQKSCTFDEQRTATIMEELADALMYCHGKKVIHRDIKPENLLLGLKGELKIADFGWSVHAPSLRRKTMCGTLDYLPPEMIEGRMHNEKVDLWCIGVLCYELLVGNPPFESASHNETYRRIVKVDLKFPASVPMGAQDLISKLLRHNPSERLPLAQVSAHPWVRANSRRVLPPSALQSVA
T1 sequence (Q9NQS7 835-904 partner limits assumed): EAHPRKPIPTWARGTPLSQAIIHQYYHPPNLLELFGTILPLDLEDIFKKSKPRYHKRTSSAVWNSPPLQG
T4 sequence (Q96GD4 70-344 V91A): as the sequence (Q96GD4 70-344) above, with V22A counted along it
T4 sequence (Q9NQS7 835-904 partner limits assumed): as the sequence (Q9NQS7 835-904 partner limits assumed) above

With `O=C(O)c1ccc(-c2c[nH]c3ncc(-c4ccccc4)cc23)cc1C1CCCC1` [GSK650394], the IC50 against human Aurora B [1] was 5.68 µM; at Af.Aurora B [2], 1.29 µM and 1.3 µM; at human Haspin, 41.4 µM; at V91A Aurora B (Val91 mutant, read-out: IC50, inhibition of V91A Aurora B), over 100 µM; in the assay on HepG2, 1.53 ± 1.88 µM; in the assay on LO2, 1.75 ± 1.28 µM. In addition, the IC50 was found to be 1.42 ± 1.19 µM in the assay on MCF-7, 6.14 ± 1.33 µM in the assay with HELF and 3.57 ± 1.38 µM in the assay with Hela. Further, the “reduction of inhibitory effect by mutation of Val91” value at V91A Aurora B (V91A vs wild type) is over 20 fold. Besides, the “concentration at which H3 phosphorylation is abolished” value in [3] came out at 2.5 µM. Besides, the “effect on histone H3 phosphorylation” value in assay [3] (vs control cells) and in assay [4] was “significant attenuation of histone H3 phosphorylation” each time. Further, in the assay with Aspergillus fumigatus, the “growth rate of Aspergillus fumigatus (diameter of colonies)” value was “markedly inhibited in a dose-dependent manner”. For the same compound, the “effect on phosphorylation of histone H3 Ser10 by Aurora B” value at human Aurora B [5] was “diminish the phosphorylation of histone H3 Ser10”. The “effect on kinase activity of Af. Aurora B” value on Af.Aurora B [6] is “effectively inhibits”.
Regarding `CCN(CCCOc1ccc2c(Nc3cc(CC(=O)Nc4cccc(F)c4)n[nH]3)ncnc2c1)CCOP(=O)(O)O` [barasertib], the overall response rate in assay [7] was 45%.

Values taken from publication PMC8667888, “Discovery of a novel Aurora B inhibitor GSK650394 with potent anticancer and anti-aspergillus fumigatus dual efficacies in vitro” (Journal of Enzyme Inhibition and Medicinal Chemistry, 2021).
